Entries after “also recorded” stand apart in the source; their conditions may differ.
Key:
[1] = tested on: target cells (C1R-A01) pulsed with peptide; assay: IFN-gamma ELISA of CTL clones established by limiting dilution (HLA-A*01:01); assay type: cell-based, human; settings: CTL clone against peptide-pulsed C1R-A01; listed as FOXM1-A01-10-566
Experimental: After induction of CTLs in vitro, the CTLs were seeded onto 96-well round-bottomed microplates (Nalge Nunc International) at 1 cell/well or 10 cells/well. The CTLs were cultured with two types of Mitomycin C-treated human B lymphoblastoid cell lines (1×10^4 cells/well each) in a total of 150 micro-l/well 5% ABS/AIM-V medium with an anti-CD3 antibody (final concentration: 30 ng/ml) and IL-2 (final concentration: 125 IU/ml). Ten days later, 50 micro-l 5% ABS/AIM-V medium containing 500 IU/ml IL-2 was added to the culture.
(§1) Peptide-pulsed C1R-A01 (1×10^4 cells/well) was prepared as the target cell. The IFN-gamma ELISPOT assay and IFN-gamma ELISA were performed according to the assay kit manufacturer's manual.

[2] = tested on: COS7 cells expressing FOXM1 and HLA-A*01:01; assay: IFN-gamma production of CTL clone against target cells expressing FOXM1 and HLA-A*01:01; assay type: cell-based, African green monkey
Excerpt: A cDNA encoding the FOXM1 or HLA-A*01:01 gene was amplified by PCR. The PCR-amplified product was each incorporated into an expression vector. Either or both of the FOXM1 gene-expressing vector and the HLA-A*01:01 gene-expressing vector were introduced into COS7 cells, which is a cell line negative for HLA, using Lipofectamine 2000 (Invitrogen). On the day after gene introduction, COS7 cells were detached and harvested using versene (Invitrogen), and used as the target cell for confirmation of IFN-gamma production (5×10^4 cells/well).
IFN-gamma production of the FOXM1-A01-10-566 (SEQ ID NO: 56)-specific CTL clone against target cells expressing FOXM1 and HLA-A*01:01 was investigated. COS7 cells expressing both FOXM1 and HLA-A*01:01 were prepared as the target cell. COS7 cells expressing either one of FOXM1 and HLA-A*01:01 were prepared as the negative control cell. […] This clearly proves that FOXM1-A01-10-566 (SEQ ID NO: 56) is a peptide generated by antigen processing, and is presented on the cell surface with the HLA-A*01:01 molecule and recognized by CTLs.

[3] = tested on: target cells (C1R-A01) pulsed with peptide; assay: IFN-gamma ELISA of CTL lines (HLA-A*01:01); assay type: cell-based, human; settings: CTL line against peptide-pulsed C1R-A01; listed as FOXM1-A01-10-566
Experimental: CTLs were propagated using methods similar to those reported by Riddell et al. (Walter E A et al., N Engl J Med 1995, 333(16): 1038-44; Riddell S R et al., Nat Med 1996, 2(2): 216-23). The CTLs were cultured in 25 ml 5% ABS/AIM-V medium together with two types of Mitomycin C-treated human B lymphoblastoid cell lines (5×10^6 cells/25 ml medium each) and an anti-CD3 antibody (final concentration: 40 ng/ml). On the day after beginning of the culturing, IL-2 (final concentration: 120 IU/ml) was added to the culture. On days 5, 8 and 11, the medium was changed to a 5% ABS/AIM-V medium containing IL-2 (final concentration: 30 IU/ml) (Tanaka H et al., Br J Cancer 2001, 84(1): 94-9; Umano Y et al., Br J Cancer 2001, 84(8): 1052-7; Uchida N et al., Clin Cancer Res 2004, 10(24): 8577-86; Suda T et al., Cancer Sci 2006, 97(5): 411-9; Watanabe T et al., Cancer Sci 2005, 96(8): 498-506).
as §1

With “SSDPASOLSY (SSDPASQLSY; a peptide derived from FOXM1) [SEQ ID NO: 56]” the “peptide-specific IFN-gamma production of CTL clone (ELISA)” value [1] was “showed a peptide-specific IFN-gamma production”, the “IFN-gamma production of peptide-specific CTL clone” value ([2]; COS7 cells expressing both FOXM1 and HLA-A*01:01) was “showed IFN-gamma production” and the “IFN-gamma production of peptide-specific CTL clone” value ([2]; negative control: COS7 cells expressing either one of FOXM1 and HLA-A*01:01, listed as FOXM1-A01-10-566) was “a significant IFN-gamma production was not observed; also recorded: a significant IFN-gamma production was not shown”. For the same sequence, the “IFN-gamma production by the CTL line (ELISA)” value [3] was “observed; also recorded: CTL line that produce IFN-gamma in a peptide-specific manner was established”.
